Measurements published in patent publication US12414958B2, “Medicament and use thereof for treating bacterial infections involving biofilm” (Debiopharm International S.A., priority 2019, dated 2025).

Tests used:
[1] = system: MRSA 43300; test: MIC of Debio 1452; type: cell-based; conditions: Staphylococcus aureus
[2] = system: ATCC 43300 MRSA strain; test: Induction of resistance studies, ex vivo bacterial exposure to 4×MIC (Example 1); type: cell-based, Staphylococcus aureus; conditions: ex vivo exposure to 4×MIC; single and combination therapy; 24h or 72h biofilm
Description: Two experimental settings were used in this study to evaluate the treatment efficacies against early (24h) and/or mature (72h) MRSA catheter formed biofilms. Briefly, mice were anaesthetised by an IP injection of about 120 μl a mix of ketamine (50 mg/kg) and xylazine (10 mg/kg) (4 mL ketamine+2 mL xylazine+10 mL saline). Flank on the right side was shaved and then disinfected by 3 consecutive applications of betadine. A cutaneous and then subcutaneous (SC) incisions of 0.2 cm were made under sterile conditions and a 1 cm segment of polyurethane catheter (Ref. No. ES-04730 Arrow international) cut into 2 longitudinal fragments was inserted SC (into the incision and then pushed further under the skin, about 2 cm away from the incision). The inoculation was done simultaneously by placing 50 μl of the bacterial culture onto the catheter (10^6 CFU of ATCC 43300 MRSA strain). The incision was stitched up and disinfected. The day of the infection was referred to as Day0 (D0). To ensure that the study was conducted in sterile conditions from the start to the end of the experiment, non-infected mice (sentinel group) were included. […] In both 24 h and 72h biofilm settings, two groups of infected non-treated animals (Vehicle controls) were evaluated for bacterial counts: at baseline (24h or D1 [for 24-h biofilm] and 72h or D3 [for 72-h biofilm] post infection, i.e. time points corresponding to treatments initiations) and at the termination of treatment duration (D6 [for 24-h biofilm] and D8 [for 72-h biofilm] post infection). Post treatment CFUs were counted on D6 or D8 and results were expressed as Log10 CFU/g of catheter (Mean±SEM). The limit of detection was determined as being 1 Log10 CFU/g of catheter. Changes of CFU/g of catheter (Δ Log10) from the baseline (D1 or D3 for 24-h and 72-h biofilm, respectively) and cure rates (corresponding to the percentage of mice without catheter-associated bacteria within a given treatment group) were also calculated. In vivo induction of antibiotic-resistant bacteria was analysed for all tested antibiotics.

[3] = system: ATCC 43300 MRSA strain; test: In vivo murine model of catheter associated infection, 24 h and 72 h MRSA biofilms; parameters: species or system Staphylococcus aureus; conditions: for CR (%) cure rate: 5.5-day treatment, percentage of mice without catheter-associated bacteria
Description: Two experimental settings were used in this study to evaluate the treatment efficacies against early (24h) and/or mature (72h) MRSA catheter formed biofilms. Briefly, mice were anaesthetised by an IP injection of about 120 μl a mix of ketamine (50 mg/kg) and xylazine (10 mg/kg) (4 mL ketamine+2 mL xylazine+10 mL saline). Flank on the right side was shaved and then disinfected by 3 consecutive applications of betadine. A cutaneous and then subcutaneous (SC) incisions of 0.2 cm were made under sterile conditions and a 1 cm segment of polyurethane catheter (Ref. No. ES-04730 Arrow international) cut into 2 longitudinal fragments was inserted SC (into the incision and then pushed further under the skin, about 2 cm away from the incision). The inoculation was done simultaneously by placing 50 μl of the bacterial culture onto the catheter (10^6 CFU of ATCC 43300 MRSA strain). The incision was stitched up and disinfected. The day of the infection was referred to as Day0 (D0). To ensure that the study was conducted in sterile conditions from the start to the end of the experiment, non-infected mice (sentinel group) were included. Treatments started either on D1 or D3 post infection, corresponding to early (24h) or more mature (72h) catheter formed biofilms, respectively, and lasted for 5.5 days (D1-D6) or (D3-D8). In both 24 h and 72h biofilm settings, two groups of infected non-treated animals (Vehicle controls) were evaluated for bacterial counts: at baseline (24h or D1 [for 24-h biofilm] and 72h or D3 [for 72-h biofilm] post infection, i.e. time points corresponding to treatments initiations) and at the termination of treatment duration (D6 [for 24-h biofilm] and D8 [for 72-h biofilm] post infection). Post treatment CFUs were counted on D6 or D8 and results were expressed as Log10 CFU/g of catheter (Mean±SEM). The limit of detection was determined as being 1 Log10 CFU/g of catheter. Changes of CFU/g of catheter (Δ Log10) from the baseline (D1 or D3 for 24-h and 72-h biofilm, respectively) and cure rates (corresponding to the percentage of mice without catheter-associated bacteria within a given treatment group) were also calculated. In vivo induction of antibiotic-resistant bacteria was analysed for all tested antibiotics.
Antibiotics doses were selected according to the effective doses in animals, which approximated the therapeutic human equivalent doses (HED) (Table 1).
Mice received antibiotics on D1, D2, D3, D4, D5 and D6 (only one administration at D6) or D3, D4, D5, D6, D7 and D8 (only one administration at D8). All antibiotics were administered BID IP, except Debio 1450 BES and Vancomycin, which were respectively given PO and SC. Daptomycin was tested as a once daily regimen to avoid tolerability issues. The antibiotics daily dosing was performed with a 10-12 hours interval between the two administrations. For combination therapy, antibiotics were administered simultaneously every 10-12 hours (the time required between the injection of the first antibiotic and the injection of the second antibiotic was less than 30 seconds per mouse).
In each sub-study, animals were randomly assigned to the antibiotic therapies or vehicle controls groups. Dose volumes were calculated according to individual body weight of each animal.
After blood collection, animals were sacrificed by cervical dislocation following anaesthesia. Two fragments of catheter per mouse were collected and were used for bacterial enumeration after sonication. Each fragment of catheter was individually washed under aseptic conditions in an Eppendorf tube (3 successive washing steps with 300 μl sterile saline). After the last wash, the catheter was suspended in 1 mL sterile saline, put in an ultrasonic bath (Advantage Lab) for 3 minutes at room temperature before being vigorously vortexed in order to detach all adherent bacteria from the catheter. Several successive dilutions of this suspension (undiluted, 10-2, […]) were cultured onto Chapman agar plates for 48 h at 37° C. […]

Compound | MIC ([1]; determined in-house) [µg/mL] | MIC ([1]; historical data from the Sponsor) [µg/mL] | emergence of resistant mutants [2] | Log10 CFU/g of catheter (D 6) Mean ± SEM ([3]; Biofilm (24 h), 5.5-day treatment (D1-D6), BALB/c mice, doses as in Table 2) | ΔLog10 CFU/g of catheter from (D 1) Mean ± SEM ([3]; Biofilm (24 h), 5.5-day treatment (D1-D6), change from baseline D 1, BALB/c mice) | CR (%) cure rate ([3]; Biofilm (24 h)) [%] | Log10 CFU/g of catheter (D 8) Mean ± SEM ([3]; Biofilm (72 h), 5.5-day treatment (D3-D8), BALB/c mice, doses as in Table 2) | ΔLog10 CFU/g of catheter from (D 3) Mean ± SEM ([3]; Biofilm (72 h), 5.5-day treatment (D3-D8), change from baseline D 3, BALB/c mice) | CR (%) cure rate ([3]; Biofilm (72 h)) [%]
Cc1c(CN(C)C(=O)/C=C/c2cnc3c(c2)CCC(=O)N3)oc2ccccc12 [Debio 1452, (E)-N-methyl-N-((3-methylbenzofuran-2-yl)methyl)-3-(7-oxo-5,6,7,8-tetrahydro-1,8-naphthyridin-3-yl) acrylamide] | 0.0625 | 0.008 | no emergence of resistant mutants |  |  |  |  |  | 
CN[C@H](CC(C)C)C(=O)N[C@H]1C(=O)N[C@@H](CC(N)=O)C(=O)N[C@H]2C(=O)N[C@H]3C(=O)N[C@H](C(=O)N[C@H](C(=O)O)c4cc(O)cc(O)c4-c4cc3ccc4O)[C@H](O)c3ccc(c(Cl)c3)Oc3cc2cc(c3O[C@@H]2O[C@H](CO)[C@@H](O)[C@H](O)[C@H]2O[C@H]2C[C@](C)(N)[C@H](O)[C@H](C)O2)Oc2ccc(cc2Cl)[C@H]1O [Vancomycin] |  |  | no emergence of resistant mutants | 5.08 ± 0.105 Log10 CFU/g of catheter | −1.59 ± 0.105 Log10 CFU/g of catheter | 0 | 4.84 ± 0.077 Log10 CFU/g of catheter | −1.94 ± 0.077 Log10 CFU/g of catheter | 0
